Where two headings read alike, the source gives them in different places. Numbered stars: 1 amine (or outer) side, 2 acyl side, 3 side chain; on linkers, the order of the positions; unused ones are H or OH. Bridge positions count the residues as written; N and C are the ends. Square brackets hold non-standard residues; d marks the D form. Peptide text beside a SMILES is read from it. X1 = O=C(O)CCCCCCCCCCCCCCCCCCC(=O)N[C@@H](CCC(=O)NCCOCCOCC(=O)NCCCC[C@H](N[*:2])C(=O)[*:1])C(=O)O; αMeL = CC(C)C[C@](C)(N)C(=O)O; Aib = CC(C)(N)C(=O)O
How the values were obtained:
GLP-1R = target: T1, GLP-1R (Homo sapiens, UniProt P43220); experiment: In vitro GLP-1R agonistic activity test (cAMP, HEK293 cell line); format: cell-based
T1 construct: host or cells: HEK293
T1 sequence (P43220 24-463, species assumed): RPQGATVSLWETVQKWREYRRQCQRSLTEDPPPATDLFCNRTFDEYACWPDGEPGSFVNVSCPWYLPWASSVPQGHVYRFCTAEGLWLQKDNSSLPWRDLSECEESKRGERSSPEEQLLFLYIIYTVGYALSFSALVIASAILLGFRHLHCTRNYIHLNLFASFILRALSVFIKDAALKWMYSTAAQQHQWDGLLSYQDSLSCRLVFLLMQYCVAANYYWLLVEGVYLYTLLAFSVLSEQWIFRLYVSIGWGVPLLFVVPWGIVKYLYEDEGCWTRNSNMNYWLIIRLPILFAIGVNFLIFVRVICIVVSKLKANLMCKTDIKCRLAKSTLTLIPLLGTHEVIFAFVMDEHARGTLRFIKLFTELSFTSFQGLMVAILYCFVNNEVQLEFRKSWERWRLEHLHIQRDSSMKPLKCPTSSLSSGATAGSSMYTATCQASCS
Procedure: The cell lines were constructed by Pharmaron Inc. See details in the table below.
The test compounds were diluted at a 5-fold dilution factor in 10 points, starting from an initial concentration of 200 nM.
1) The cell lines were cultured respectively in complete medium at 37° C. and 5% CO2.
1) Eu-cAMP tracer was freeze-thawed and diluted 50 fold with detection buffer; and Ulight-anti-cAMP was freeze-thawed and diluted 150 fold with detection buffer.
3) 10 μL of Eu-cAMP tracer was added and then 10 μL of Uligh-anti-cAMP was added into experimental wells respectively.
4) The reaction plate was centrifuged at 200 g at room temperature for 30 s and left for stand at 25° C. for 1 h.

[1] = Metabolic stability in human kidney S9; format: in vitro ADME; conditions: human, s9
Procedure: The metabolic stability of the compounds in human kidney was evaluated to determine whether the drugs would be degraded by metabolic enzymes in the kidney to affect the efficacies and pharmacokinetics. 1. Relevant solutions were formulated. 2. a) With cofactors (NADPH & UDPGA): NADPH and UDPGA were added during the incubation. […] H2O was added into the culture solution. The final concentration of KS9 Fractions was 1 mg/mL. The mixture was pre-heated at 37° C. for 10 min. […] In this study, 7-hydroxy-coumarin and Raloxifene were used as the positive control. The final concentration of the positive control compounds was 0.2 μM, and the final concentration of the test compound was 1 μM. The culture solution was incubated in water bath at 37° C. 4. At 0.5, 5, 15, 30 and 60 min, volume aliquots were taken from the reaction solution and the reaction was stopped by adding acetonitrile. The samples were centrifuged for 30 min. The supernatant was taken and mixed with ultrapure water for subsequent LC-MS/MS analysis. 5. Data analysis: All calculation was conducted using Microsoft Excel. Peak areas were determined and slope values were calculated based on the extracted ion chromatograms.

[2] = Pharmacokinetic properties in Cynomolgus macaques; conditions: cynomolgus monkey, in vivo, male cynomolgus macaques, plasma
Procedure: To test the pharmacokinetic profiles of the compounds in Cynomolgus macaques.
Non-juvenile male cynomolgus macaques were used for experiment, 3 cynomolgus macaques for each compound. Whole blood was collected at time points of 1 h, 2 h, 4 h, 8 h, 16 h, 24 h, 48 h, 72 h, 120 h, 168 h and 240 h after administration, to prepare plasma. The drug concentration was analyzed by LC-MS/MS method, and the pharmacokinetic parameters were calculated using Phoenix WinNonlin software.

[3] = cAMP, HEK293 cells expressing GLP-1R, read-out: GLP-1 EC50

Which EC50 (GLP-1R; [3]) does the source give for `CC[C@H](C)[C@H](NC(=O)[C@H](Cc1ccccc1)NC(=O)[C@@H]1CCC(=O)N[C@@H](CCCCNC(=O)COCCOCCNC(=O)CC[C@H](NC(=O)CCCCCCCCCCCCCCCCCCC(=O)O)C(=O)O)C(=O)NCCCC[C@H](NC(=O)[C@H](CCCCN)NC(=O)[C@H](CC(=O)O)NC(=O)[C@H](CC(C)C)NC(=O)[C@](C)(CC(C)C)NC(=O)[C@@H](NC(=O)[C@H](CO)NC(=O)[C@H](Cc2ccc(O)cc2)NC(=O)[C@H](CC(=O)O)NC(=O)[C@H](CO)NC(=O)[C@@H](NC(=O)[C@H](Cc2ccccc2)NC(=O)[C@@H](NC(=O)CNC(=O)[C@H](CCC(N)=O)NC(=O)C(C)(C)NC(=O)[C@@H](N)Cc2ccc(O)cc2)[C@@H](C)O)[C@@H](C)O)[C@@H](C)CC)C(=O)N[C@@H](C)C(=O)N[C@@H](CCC(N)=O)C(=O)NC(C)(C)C(=O)N1)C(=O)N[C@@H](CCC(=O)O)C(=O)N[C@@H](Cc1ccc(O)cc1)C(=O)N[C@@H](CC(C)C)C(=O)N[C@@H](CC(C)C)C(=O)N[C@@H](CCC(=O)O)C(=O)NCC(=O)NCC(=O)N1CCC[C@H]1C(=O)N[C@@H](CO)C(=O)N[C@@H](CO)C(=O)NCC(=O)N[C@@H](C)C(=O)N1CCC[C@H]1C(=O)N1CCC[C@H]1C(=O)N1CCC[C@H]1C(=O)N[C@@H](CO)C(N)=O` [Example 10, YAibQGT FTSDY SIα- MeLLD K^1KAQAib ^1EFIEY LLEGG PSSGA PPPS-NH2 (SEQ ID NO: 16)] (H-Y[Aib]QGTFTSDYSI[αMeL]LDKKAQ[Aib]EFIEYLLEGGPSSGAPPPS-NH2; linker 17-21 via X1 (inferred); N-terminus assumed) here?
Its EC50 is 9 pM.

What about the half-life at 1 μM [1] of the same compound?
The half-life at 1 μM was > 3.08 h.

And the microsomal CLint at 1 μM [1]?
The microsomal CLint at 1 μM was < 3.75 µL/min/mg.

For `CC[C@H](C)[C@@H]1NC(=O)[C@H](Cc2ccccc2)NC(=O)[C@@H](NC(=O)C(C)(C)NC(=O)[C@H](CCC(N)=O)NC(=O)[C@H](C)NC(=O)[C@H](CCCCN)NC(=O)[C@H](CCCCN)NC(=O)[C@H](CC(=O)O)NC(=O)[C@H](CC(C)C)NC(=O)[C@](C)(CC(C)C)NC(=O)[C@@H](NC(=O)[C@H](CO)NC(=O)[C@H](Cc2ccc(O)cc2)NC(=O)[C@H](CC(=O)O)NC(=O)[C@H](CO)NC(=O)[C@@H](NC(=O)[C@H](Cc2ccccc2)NC(=O)[C@@H](NC(=O)CNC(=O)[C@H](CCC(N)=O)NC(=O)C(C)(C)NC(=O)[C@@H](N)Cc2ccc(O)cc2)[C@@H](C)O)[C@@H](C)O)[C@@H](C)CC)CCCCNC(=O)CN(C(=O)COCCOCCNC(=O)COCCOCCNC(=O)CC[C@H](NC(=O)CCCCCCCCCCCCCCCCCCC(=O)O)C(=O)O)CC(=O)NCCCC[C@@H](C(=O)NCC(=O)NCC(=O)N2CCC[C@H]2C(=O)N[C@@H](CO)C(=O)N[C@@H](CO)C(=O)NCC(=O)N[C@@H](C)C(=O)N2CCC[C@H]2C(=O)N2CCC[C@H]2C(=O)N2CCC[C@H]2C(=O)N[C@@H](CO)C(N)=O)NC(=O)[C@H](CC(C)C)NC(=O)[C@H](CC(C)C)NC(=O)[C@H](Cc2ccc(O)cc2)NC(=O)[C@H](CCC(=O)O)NC1=O` [Example 14, YAibQGT FTSDY SIα- MeLLD KKAQAib ^1KFIEY LLIKGG PSSGA PPPS-NH2 (SEQ ID NO: 20)], which EC50 (GLP-1R; [3]) is on record?
Its EC50 is 1 pM.

With `CC[C@H](C)[C@H](NC(=O)[C@H](Cc1ccccc1)NC(=O)[C@@H]1CCCCNC(=O)CN(C(=O)[C@@H](N)CCCCNC(=O)[C@@H](N)CCCCNC(=O)CC[C@H](NC(=O)CCCCCCCCCCCCCCCCCCC(=O)O)C(=O)O)CC(=O)NCCCC[C@H](NC(=O)[C@H](CCCCN)NC(=O)[C@H](CC(=O)O)NC(=O)[C@H](CC(C)C)NC(=O)[C@](C)(CC(C)C)NC(=O)[C@@H](NC(=O)[C@H](CO)NC(=O)[C@H](Cc2ccc(O)cc2)NC(=O)[C@H](CC(=O)O)NC(=O)[C@H](CO)NC(=O)[C@@H](NC(=O)[C@H](Cc2ccccc2)NC(=O)[C@@H](NC(=O)CNC(=O)[C@H](CCC(N)=O)NC(=O)C(C)(C)NC(=O)[C@@H](N)Cc2ccc(O)cc2)[C@@H](C)O)[C@@H](C)O)[C@@H](C)CC)C(=O)N[C@@H](C)C(=O)N[C@@H](CCC(N)=O)C(=O)NC(C)(C)C(=O)N1)C(=O)N[C@@H](CCC(=O)O)C(=O)N[C@@H](Cc1ccccc1)C(=O)N[C@@H](CC(C)C)C(=O)N[C@@H](CC(C)C)C(=O)N[C@@H](CCC(=O)O)C(=O)NCC(=O)NCC(=O)N1CCC[C@H]1C(=O)N[C@@H](CO)C(=O)N[C@@H](CO)C(=O)NCC(=O)N[C@@H](C)C(=O)N1CCC[C@H]1C(=O)N1CCC[C@H]1C(=O)N1CCC[C@H]1C(=O)N[C@@H](CO)C(N)=O` [Example 22, YAibQGT FTSDY SIα- MeLLD K^1KAQAib ^1KFIEF LLEGG PSSGA PPPS-NH2 (SEQ ID NO: 25)] as the compound, how does the EC50 (GLP-1R; [3]) read?
Its EC50 is 9 pM.

Which EC50 (GLP-1R) does the source give for `CC[C@H](C)[C@H](NC(=O)[C@H](Cc1ccccc1)NC(=O)[C@H](C)NC(=O)C(C)(C)NC(=O)[C@H](CCC(N)=O)NC(=O)[C@H](C)NC(=O)[C@@H]1CCCCNC(=O)CN(C(=O)COCCOCCNC(=O)CC[C@H](NC(=O)CCCCCCCCCCCCCCCCCCC(=O)O)C(=O)O)CC(=O)NCCCC[C@H](NC(=O)[C@](C)(CC(C)C)NC(=O)[C@@H](NC(=O)[C@H](CO)NC(=O)[C@H](Cc2ccc(O)cc2)NC(=O)[C@H](CC(=O)O)NC(=O)[C@H](CO)NC(=O)[C@@H](NC(=O)[C@H](Cc2ccccc2)NC(=O)[C@@H](NC(=O)CNC(=O)[C@H](CCC(N)=O)NC(=O)C(C)(C)NC(=O)[C@@H](N)Cc2ccc(O)cc2)[C@@H](C)O)[C@@H](C)O)[C@@H](C)CC)C(=O)N[C@@H](CC(=O)O)C(=O)N[C@@H](CCCCN)C(=O)N1)C(=O)N[C@@H](CCC(=O)O)C(=O)N[C@@H](Cc1ccc(O)cc1)C(=O)N[C@@H](CC(C)C)C(=O)N[C@@H](CC(C)C)C(=O)N[C@@H](CCCCN)C(=O)NCC(=O)NCC(=O)N1CCC[C@H]1C(=O)N[C@@H](CO)C(=O)N[C@@H](CO)C(=O)NCC(=O)N[C@@H](C)C(=O)N1CCC[C@H]1C(=O)N1CCC[C@H]1C(=O)N1CCC[C@H]1C(=O)N[C@@H](CO)C(N)=O` [Example 38, YAibQGT FTSDY SIα- MeL^1KD K^1KAQAib AFIEY LLKGG PSSGA PPPS-NH2 (SEQ ID NO: 38)] here?
The EC50 was 2 pM.

And the AUC(0-t) ([2]; read-out: AUC0-240 h)?
The AUC(0-t) was 3.88 µM·h.

What about the AUC(0-inf) ([2]; read-out: AUCINF) of the same compound?
The AUC(0-inf) was 4.41 µM·h.

What about the Cmax ([2]; read-out: Cmax) of the same compound?
Its Cmax is 33.9 nM.

And the half-life ([2]; read-out: T1/2 (converted))?
The half-life was 74.9 h.

What about the Tmax ([2]; read-out: Tmax) of the same compound?
Its Tmax is 21.3 h.

With `CC[C@H](C)[C@H](NC(=O)[C@H](Cc1ccccc1)NC(=O)[C@H](C)NC(=O)C(C)(C)NC(=O)[C@H](CCC(N)=O)NC(=O)[C@H](C)NC(=O)[C@@H]1CCCCNC(=O)CN(C(=O)COCCOCCNC(=O)[C@@H](N)CCCCNC(=O)CC[C@H](NC(=O)CCCCCCCCCCCCCCCCCCC(=O)O)C(=O)O)CC(=O)NCCCC[C@H](NC(=O)[C@](C)(CC(C)C)NC(=O)[C@@H](NC(=O)[C@H](CO)NC(=O)[C@H](Cc2ccc(O)cc2)NC(=O)[C@H](CC(=O)O)NC(=O)[C@H](CO)NC(=O)[C@@H](NC(=O)[C@H](Cc2ccccc2)NC(=O)[C@@H](NC(=O)CNC(=O)[C@H](CCC(N)=O)NC(=O)C(C)(C)NC(=O)[C@@H](N)Cc2ccc(O)cc2)[C@@H](C)O)[C@@H](C)O)[C@@H](C)CC)C(=O)N[C@@H](CC(=O)O)C(=O)N[C@@H](CCCCN)C(=O)N1)C(=O)N[C@@H](CCC(=O)O)C(=O)N[C@@H](Cc1ccc(O)cc1)C(=O)N[C@@H](CC(C)C)C(=O)N[C@@H](CC(C)C)C(=O)N[C@@H](CCCCN)C(=O)NCC(=O)NCC(=O)N1CCC[C@H]1C(=O)N[C@@H](CO)C(=O)N[C@@H](CO)C(=O)NCC(=O)N[C@@H](C)C(=O)N1CCC[C@H]1C(=O)N1CCC[C@H]1C(=O)N1CCC[C@H]1C(=O)N[C@@H](CO)C(N)=O` [Example 54, YAibQGT FTSDY SIα- MeL^1KD K^1KAQAib AFIEY LLKGG PSSGA PPPS-NH2 (SEQ ID NO: 38)] as the compound, how does the EC50 (GLP-1R; [3]) read?
Its EC50 is 2 pM.
